Test results from the NIST ThermoML archive (doi:10.1016/j.fluid.2018.10.006).
Values joined by “and” are separate entries in the source; they are usually repeats but may differ in a detail not shown here. Equal values may be shown once.

Details: Fluid (supercritical or subcritical phases), Coaxial cylinder method

CCCCCC [hexane]
thermal conductivity
Details	510.36 K	511.55 K
900 kPa	–	0.03854 W/m/K
1000 kPa	–	0.03823 W/m/K
1100 kPa	–	0.03832 W/m/K
1200 kPa	–	0.03859 W/m/K
1300 kPa	–	0.03877 W/m/K
1400 kPa	–	0.03895 W/m/K
1500 kPa	–	0.03914 W/m/K
1600 kPa	–	0.03932 W/m/K
1700 kPa	–	0.0397 W/m/K
1800 kPa	–	0.04008 W/m/K
1900 kPa	–	0.04047 W/m/K
2000 kPa	–	0.04087 W/m/K
2100 kPa	–	0.04127 W/m/K
2200 kPa	–	0.0419 W/m/K
2300 kPa	–	0.04254 W/m/K
2400 kPa	–	0.04342 W/m/K
2462 kPa	–	0.04388 W/m/K
2466 kPa	–	0.04388 W/m/K
2500 kPa	–	0.04434 W/m/K
2600 kPa	–	0.0453 W/m/K
2700 kPa	–	0.04656 W/m/K
2800 kPa	–	0.04846 W/m/K
2900 kPa	–	0.05075 W/m/K
2973 kPa	–	0.05292 W/m/K
2988 kPa	–	0.05356 W/m/K
3050 kPa	–	0.05558 W/m/K
3065 kPa	–	0.05634 W/m/K
3084 kPa	–	0.05785 W/m/K
3096 kPa	–	0.05908 W/m/K
3103 kPa	–	0.05968 W/m/K
3110 kPa	–	0.06064 W/m/K
3116 kPa	–	0.06128 W/m/K
3130 kPa	–	0.06341 W/m/K
3140 kPa	–	0.06508 W/m/K
3145 kPa	–	0.06587 W/m/K
3150 kPa	–	0.06678 W/m/K
3155 kPa	–	0.06787 W/m/K
3160 kPa	–	0.06879 W/m/K
3165 kPa	–	0.0699 W/m/K
3168 kPa	–	0.07058 W/m/K
3170 kPa	–	0.07104 W/m/K
3173 kPa	–	0.0718 W/m/K
3175 kPa	–	0.07228 W/m/K
3180 kPa	–	0.07336 W/m/K
3183 kPa	–	0.07404 W/m/K
3185 kPa	–	0.07447 W/m/K
3187 kPa	–	0.07504 W/m/K
3190 kPa	–	0.07571 W/m/K
3192 kPa	–	0.07616 W/m/K
3193 kPa	–	0.07629 W/m/K
3195 kPa	–	0.07668 W/m/K
3200 kPa	–	0.07761 W/m/K
3205 kPa	–	0.07821 W/m/K
3212 kPa	–	0.07869 W/m/K
3220 kPa	–	0.07869 W/m/K
3225 kPa	–	0.07855 W/m/K
3230 kPa	0.07155 W/m/K	0.07767 W/m/K
3232 kPa	0.07138 W/m/K	–
3234 kPa	0.07128 W/m/K	–
3235 kPa	–	0.07701 W/m/K
3236 kPa	0.07122 W/m/K	–
3238 kPa	0.07122 W/m/K	–
3240 kPa	–	0.07636 W/m/K
3242 kPa	0.07105 W/m/K	–
3245 kPa	0.07105 W/m/K	0.07571 W/m/K
3248 kPa	0.07105 W/m/K	–
3250 kPa	0.07072 W/m/K	0.07508 W/m/K
3252 kPa	0.07072 W/m/K	–
3254 kPa	0.07072 W/m/K	–
3255 kPa	–	0.07386 W/m/K
3256 kPa	0.07039 W/m/K	–
3258 kPa	0.07039 W/m/K	–
3260 kPa	0.07039 W/m/K	0.07266 W/m/K
3265 kPa	0.0704 W/m/K	0.07151 W/m/K
3270 kPa	0.07008 W/m/K	0.07151 W/m/K
3275 kPa	–	0.07209 W/m/K
3280 kPa	0.06975 W/m/K	0.07209 W/m/K
3285 kPa	–	0.07209 W/m/K
3290 kPa	0.0696 W/m/K	0.07267 W/m/K
3295 kPa	–	0.07267 W/m/K
3300 kPa	0.06944 W/m/K	0.07151 W/m/K
3305 kPa	–	0.07151 W/m/K
3310 kPa	0.06944 W/m/K	0.07151 W/m/K
3315 kPa	–	0.07095 W/m/K
3320 kPa	0.06912 W/m/K	–
3325 kPa	–	0.07095 W/m/K
3330 kPa	–	0.07095 W/m/K
3335 kPa	–	0.07144 W/m/K
3340 kPa	0.06881 W/m/K	0.07144 W/m/K
3345 kPa	–	0.07144 W/m/K
3350 kPa	0.0685 W/m/K	0.07144 W/m/K
3360 kPa	0.0685 W/m/K	0.07088 W/m/K
3365 kPa	–	0.07088 W/m/K
3370 kPa	0.0685 W/m/K	0.07033 W/m/K
3375 kPa	–	0.07033 W/m/K
3380 kPa	0.0685 W/m/K	–
3385 kPa	–	0.07033 W/m/K
3392 kPa	0.06834 W/m/K	–
3395 kPa	–	0.07033 W/m/K
3400 kPa	–	0.07033 W/m/K
3410 kPa	–	0.07088 W/m/K
3450 kPa	0.06819 W/m/K	0.07081 W/m/K
3455 kPa	–	0.07081 W/m/K
3460 kPa	–	0.07062 W/m/K and 0.07064 W/m/K
3470 kPa	–	0.07062 W/m/K
3480 kPa	–	0.07051 W/m/K
3490 kPa	–	0.07054 W/m/K
3500 kPa	0.0685 W/m/K	0.07026 W/m/K
3520 kPa	0.0686 W/m/K	–
3540 kPa	0.0686 W/m/K	–
3550 kPa	–	0.0701 W/m/K
3560 kPa	0.0686 W/m/K	–
3580 kPa	0.0686 W/m/K	–
3600 kPa	0.06851 W/m/K	0.07 W/m/K
3620 kPa	0.06851 W/m/K	–
3640 kPa	0.06854 W/m/K	–
3650 kPa	0.06857 W/m/K	0.06992 W/m/K
3670 kPa	0.0686 W/m/K	–
3680 kPa	0.06861 W/m/K	–
3700 kPa	0.06864 W/m/K	0.06992 W/m/K
3720 kPa	0.06873 W/m/K	–
3740 kPa	0.06883 W/m/K	–
3750 kPa	0.06886 W/m/K	0.06969 W/m/K
3800 kPa	0.06913 W/m/K	0.06964 W/m/K
3810 kPa	0.06917 W/m/K	–
3820 kPa	0.06922 W/m/K	–
3830 kPa	0.06922 W/m/K	–
3840 kPa	0.06919 W/m/K	–
3850 kPa	–	0.06975 W/m/K
3860 kPa	0.06928 W/m/K	–
3900 kPa	–	0.06992 W/m/K
3950 kPa	–	0.06992 W/m/K
3970 kPa	0.06973 W/m/K	–
3980 kPa	0.06964 W/m/K	–
4000 kPa	–	0.06992 W/m/K
4010 kPa	0.06977 W/m/K	–
4100 kPa	–	0.07009 W/m/K
4150 kPa	–	0.07009 W/m/K
4300 kPa	–	0.0702 W/m/K
4400 kPa	–	0.07048 W/m/K
4500 kPa	–	0.07048 W/m/K
4600 kPa	–	0.07077 W/m/K
4700 kPa	–	0.07105 W/m/K
4800 kPa	–	0.07105 W/m/K
